Assays:
Type in all cases: in vivo
[1] = system: green peach aphid (Myzus persicae); assay: Green peach aphid (Myzus persicae) systemic test, artificial diet under membrane; settings: 72 h, 3 days, read-out: mortality in comparison with untreated controls (aphid mortality)
Protocol: (§1) If not otherwise specified, the test solutions are prepared as follows: The active compound is dissolved at the desired concentration in a mixture of 1:1 (vol:vol) distilled water:acetone. The test solution is prepared at the day of use. Test solutions are prepared in general at concentrations of 2500 ppm, 1000 ppm, 800 ppm, 500 ppm, 300 ppm, 100 ppm and 30 ppm (wt/vol).
Green Peach Aphid (Myzus persicae) For evaluating control of green peach aphid (Myzus persicae) through systemic means the test unit consisted of 96-well-microtiter plates containing liquid artificial diet under an artificial membrane. The compounds were formulated using a solution containing 75% v/v water and 25% v/v DMSO. Different concentrations of formulated compounds were pipetted into the aphid diet, using a custom built pipetter, at two replications. After application, 5-8 adult aphids were placed on the artificial membrane inside the microtiter plate wells. The aphids were then allowed to suck on the treated aphid diet and incubated at about 23±1° C. and about 50±5% relative humidity for 3 days. Aphid mortality and fecundity was then visually assessed.

[2] = system: boll weevil (Anthonomus grandis); assay: Boll weevil (Anthonomus grandis) egg and larval mortality, insect diet in 96-well microtiter plates; settings: 120 h, 5 days, read-out: mortality in comparison with untreated controls (egg and larval mortality)
Protocol: as §1
Boll Weevil (Anthonomus grandis)
(§2) For evaluating control of boll weevil (Anthonomus grandis) the test unit consisted of 96-well-microtiter plates containing an insect diet and 5-10 A. grandis eggs. The compounds were formula ted using a solution containing 75% v/v water and 25% v/v DMSO. Different concentrations of formulated compounds were sprayed onto the insect diet at 5 μl, using a custom built micro atomizer, at two replications. After application, microtiter plates were incubated at about 25±1° C. and about 75±5% relative humidity for 5 days. Egg and larval mortality was then visually assessed.

[3] = system: yellow fever mosquito (Aedes aegypti); assay: whole plant or invertebrate; settings: 48 h, 2 days, read-out: mortality in comparison with untreated controls (larval mortality)
Protocol: as §1
Yellow Fever Mosquito (Aedes aegypti)
For evaluating control of yellow fever mosquito (Aedes aegypti) the test unit consisted of 96-well-microtiter plates containing 200 μl of tap water per well and 5-15 freshly hatched A. aegypti larvae. The active compounds were formulated using a solution containing 75% (v/v) water and 25% (v/v) DMSO. Different concentrations of formulated compounds or mixtures were sprayed onto the insect diet at 2.5 μl, using a custom built micro atomizer, at two replications. After application, microtiter plates were incubated at 28±1° C., 80±5% RH for 2 days. Larval mortality was then visually assessed.

[4] = system: vetch aphid (Megoura viciae); assay: Vetch aphid (Megoura viciae) contact or systemic test on broad bean leaf disks; settings: foliar, 120 h, 5 days, read-out: mortality in comparison with untreated controls (aphid mortality)
Protocol: as §1
Vetch Aphid (Megoura viciae)
For evaluating control of vetch aphid (Megoura viciae) through contact or systemic means the test unit consisted of 24-well-microtiter plates containing broad bean leaf disks.
The compounds were formulated using a solution containing 75% v/v water and 25% v/v DMSO. Different concentrations of formulated compounds were sprayed onto the leaf disks at 2.5 μl, using a custom built micro atomizer, at two replications. After application, the leaf disks were air-dried and 5-8 adult aphids placed on the leaf disks inside the microtiter plate wells. The aphids were then allowed to suck on the treated leaf disks and incubated at about 23±1° C. and about 50±5% relative humidity for 5 days. Aphid mortality and fecundity was then visually assessed.

[5] = system: tobacco budworm (Heliothis virescens); assay: Tobacco budworm (Heliothis virescens) egg and larval mortality, insect diet in 96-well microtiter plates; settings: 120 h, 5 days, read-out: mortality in comparison with untreated controls (egg and larval mortality)
Protocol: as §1
Tobacco Budworm (Heliothis virescens)
as §2, with “of tobacco budworm (Heliothis virescens)” for “of boll weevil (Anthonomus grandis)”, “and 15-25 H. virescens” for “and 5-10 A. grandis”, “were formulated” for “were formula ted”, “at 10” for “at 5”, “about 28±1°” for “about 25±1°”, “about 80±5%” for “about 75±5%”

Row | Structure (SMILES) | mortality at 2500 ppm [1] [%] | mortality at 2500 ppm [2] [%] | mortality at 800 ppm [3] [%] | mortality at 2500 ppm [4] [%] | mortality at 2500 ppm [5] [%] | mortality at 800 ppm [2] [%] | mortality at 800 ppm [5] [%] | mortality at 800 ppm [1] [%]
1 | CCS(=O)(=O)c1c(-c2nc3cnc4c(OC(F)(F)F)cccc4c3n2C)nc2ccc(C(F)(F)F)cn12 [C-1] | > 75 | > 75 | ≥ 75 | > 75 | > 75 |  |  | 
2 | CCS(=O)(=O)c1c(-c2nc3cnc4c(C(F)(F)F)cccc4c3n2C)nc2ccc(C(F)(F)F)cn12 [C-2] | > 75 | > 75 | ≥ 75 | > 75 | > 75 |  |  | 
3 | CCS(=O)(=O)c1c(-c2nc3cnc4c(C(F)(F)F)cccc4c3n2C)nc2ccccn12 [C-3] | > 75 | > 75 | ≥ 75 | > 75 | > 75 |  |  | 
4 | CCS(=O)(=O)c1c(-c2nc3cnc4c(OC(F)(F)F)cccc4c3n2C)nc2ccccn12 [C-4, 2-(3-ethylsulfonylimidazo[1,2-a]pyridin-2-yl)-1-methyl-6-(trifluoromethoxy)imidazo[4,5-c]quinoline] | > 75 | > 75 | ≥ 75 | > 75 | > 75 |  |  | 
5 | CCS(=O)(=O)c1c(-c2nc3cnc4cc(C(F)(F)F)ccc4c3n2C)nc2ccccn12 [C-6] |  | > 75 |  |  | > 75 |  |  | 
6 | CCS(=O)(=O)c1c(-c2cn3c(ccc4c(C(F)(F)F)ccnc43)n2)nc2ccccn12 [C-7, 8-(3-ethylsulfonylimidazo[1,2-a]pyridin-2-yl)-4-(trifluoromethyl)imidazo[1,2-a][1,8]naphthyridine] | > 75 | > 75 | ≥ 75 |  | > 75 |  |  | 
7 | CCS(=O)(=O)c1c(-c2cn3c(ccc4c(C(F)(F)F)cc(C(F)(F)F)nc43)n2)nc2ccc(C(F)(F)F)cn12 [C-8] |  |  |  |  |  | > 75 | > 75 | 
8 | CCS(=O)(=O)c1c(-c2cn3c(ccc4c(C(F)(F)F)ccnc43)n2)nc2ccc(C(F)(F)F)cn12 [C-9] |  |  | ≥ 75 |  |  | > 75 | > 75 | > 75
9 | CCS(=O)(=O)c1c(-c2cn3c(ccc4c(C(F)(F)F)ccnc43)n2)nn2ccccc12 [C-10] |  |  |  |  |  | > 75 |  | > 75
10 | CCS(=O)(=O)c1c(-c2nc3cc(C(F)(F)F)c4ncccc4c3n2C)nc2ccccn12 [C-11, 2-(3-ethylsulfonylimidazo[1,2-a]pyridin-2-yl)-1-methyl-5-(trifluoromethyl)imidazo[4,5-f]quinoline] |  |  |  |  |  | > 75 | > 75 | > 75
11 | CCS(=O)(=O)c1c(-c2nc3cnc4c(C(F)(F)F)cccc4c3n2C)nc2n1CCCC2 [C-12] |  |  | ≥ 75 |  |  | > 75 | > 75 | > 75
12 | CCS(=O)(=O)c1c(-c2nc3cnc4cc(OC(F)(F)F)ccc4c3n2C)nc2n1CCCC2 [C-14] |  |  |  |  |  |  | > 75 | > 75
13 | CCS(=O)(=O)c1c(-c2nc3cnc4cc(OC(F)(F)F)ccc4c3n2C)nc2ncccn12 [C-15] |  |  |  |  |  |  |  | > 75
14 | CCS(=O)(=O)c1c(-c2nc3cnc4c(C(F)(F)F)cccc4c3n2C)nc2ncccn12 [C-16] |  |  |  |  |  |  |  | > 75
15 | CCS(=O)(=O)c1c(-c2nc3cnc4c(OC(F)(F)F)cccc4c3n2C)nc2ncccn12 [C-17] |  |  |  |  |  |  |  | > 75
16 | CCS(=O)(=O)c1c(-c2nc3cnc4cc(C(F)(F)F)ccc4c3n2C)nc2ncccn12 [C-18] |  |  |  |  |  |  | > 75 | 
17 | CCS(=O)(=O)c1c(-c2nc3cnc4c(C(F)(F)F)cccc4c3n2C)nn2ccccc12 [C-19] |  |  | ≥ 75 |  |  | > 75 | > 75 | > 75
18 | CCS(=O)(=O)c1c(-c2nc3cnc4cc(C(F)(F)F)ccc4c3n2C)nn2ccccc12 [C-20] |  |  |  |  |  | > 75 | > 75 | 
19 | CCS(=O)(=O)c1c(-c2nc3cnc4c(OC(F)(F)F)cccc4c3n2C)nn2ccc(C(C)(C)C#N)cc12 [C-22] |  |  |  |  |  | > 75 | > 75 | > 75
20 | CCS(=O)(=O)c1c(-c2nc3cnc4cc(OC(F)(F)F)ccc4c3n2C)nn2ccc(C(C)(C)C#N)cc12 [C-23] |  |  |  |  |  | > 75 | > 75 | 
21 | CCS(=O)(=O)c1c(-c2nc3cnc4cc(C(F)(F)F)ccc4c3n2C)nc2ccc(Br)cn12 [C-27] |  |  | ≥ 75 |  |  | > 75 | > 75 | 
22 | CCS(=O)(=O)c1c(-c2nc3cnc4c(C(F)(F)F)cccc4c3n2C)nc2ccc(Br)cn12 [C-28] |  |  | ≥ 75 |  |  | > 75 | > 75 | > 75
23 | CCS(=O)(=O)c1c(-c2nc3cnc4cc(OC(F)(F)F)ccc4c3n2C)nn2ccccc12 [C-29] |  |  | ≥ 75 |  |  | > 75 | > 75 | > 75
